From ChEMBL document CHEMBL3627633, “Synthesis of potent urease inhibitors based on disulfide scaffold and their molecular docking studies” (Bioorg Med Chem, 2015)
Activity calls are given as the source filed them. The rule behind the calls is not given here.

Assays:
[1] = target: Carbonic anhydrase (Homo sapiens) (UniProt P00918+P43166+P00915+P07451+P23280+O43570+Q9ULX7+Q16790+P22748+Q8N1Q1+Q9Y2D0+P35218); assay: Inhibition of carbonic anhydrase (unknown origin); format: protein assay
[2] = test system: Serpentes; assay: Inhibition of snake venom NPP1 using bis(p-nitrophenyl)phosphate as substrate assessed as p-nitrophenol release preincubated for 30 mins by spectrophotometry
[3] = target: Cholinesterase (Equus caballus) (UniProt P81908); assay: Inhibition of equine serum butyrylcholinesterase using […] as substrate preincubated for 15 mins followed by substrate addition measured every 1 min by Ellman's method
Sequence of Cholinesterase (Equus caballus) (P81908 whole entry): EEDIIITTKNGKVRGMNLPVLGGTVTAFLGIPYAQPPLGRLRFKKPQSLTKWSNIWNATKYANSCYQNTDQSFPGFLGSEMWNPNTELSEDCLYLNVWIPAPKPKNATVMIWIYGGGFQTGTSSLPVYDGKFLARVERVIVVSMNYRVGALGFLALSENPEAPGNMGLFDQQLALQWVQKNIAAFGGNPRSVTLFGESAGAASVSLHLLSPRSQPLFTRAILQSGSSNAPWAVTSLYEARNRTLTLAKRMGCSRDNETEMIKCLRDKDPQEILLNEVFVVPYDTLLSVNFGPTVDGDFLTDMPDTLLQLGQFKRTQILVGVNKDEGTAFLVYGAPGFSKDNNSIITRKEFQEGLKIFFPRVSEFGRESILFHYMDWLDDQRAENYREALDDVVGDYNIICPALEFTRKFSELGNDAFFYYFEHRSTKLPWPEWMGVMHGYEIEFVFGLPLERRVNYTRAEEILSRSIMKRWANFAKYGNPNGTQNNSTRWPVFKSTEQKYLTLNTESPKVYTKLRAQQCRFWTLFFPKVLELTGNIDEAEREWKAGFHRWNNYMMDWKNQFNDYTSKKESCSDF

[4] = target: Urease (Canavalia ensiformis, UniProt P07374); assay: Inhibition of jack bean urease using urea as substrate assessed as ammonia production incubated for 15 mins by indophenol method
Sequence of Urease (P07374 whole entry): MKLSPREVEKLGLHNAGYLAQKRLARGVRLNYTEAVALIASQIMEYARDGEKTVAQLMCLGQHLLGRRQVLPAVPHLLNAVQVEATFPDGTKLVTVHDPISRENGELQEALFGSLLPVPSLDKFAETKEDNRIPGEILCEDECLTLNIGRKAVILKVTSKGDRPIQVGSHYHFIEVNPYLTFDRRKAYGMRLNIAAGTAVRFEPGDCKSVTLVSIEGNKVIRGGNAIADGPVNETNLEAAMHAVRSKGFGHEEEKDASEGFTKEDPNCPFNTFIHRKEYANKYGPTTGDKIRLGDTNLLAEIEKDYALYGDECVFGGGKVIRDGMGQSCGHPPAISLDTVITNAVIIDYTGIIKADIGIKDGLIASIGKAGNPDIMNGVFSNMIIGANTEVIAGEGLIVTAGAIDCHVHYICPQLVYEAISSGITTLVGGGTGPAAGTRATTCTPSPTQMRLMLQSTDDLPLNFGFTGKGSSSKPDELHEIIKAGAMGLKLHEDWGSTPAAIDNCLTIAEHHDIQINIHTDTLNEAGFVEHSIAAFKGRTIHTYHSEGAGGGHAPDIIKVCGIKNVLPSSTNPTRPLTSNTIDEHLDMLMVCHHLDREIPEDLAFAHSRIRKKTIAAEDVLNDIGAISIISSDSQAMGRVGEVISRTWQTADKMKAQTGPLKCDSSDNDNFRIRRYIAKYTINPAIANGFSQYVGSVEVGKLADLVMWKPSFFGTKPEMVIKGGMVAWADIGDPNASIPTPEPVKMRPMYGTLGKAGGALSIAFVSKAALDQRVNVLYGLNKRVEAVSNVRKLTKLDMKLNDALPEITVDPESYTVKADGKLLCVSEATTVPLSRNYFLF

[5] = Cytotoxicity against mouse 3T3L1 cells assessed as cell viability at 1 to 20 ug/ml after 48 hrs by MTT assay; format: cell-based; conditions: 3t3-l1, 48 h
[6] = Cytotoxicity against Wistar rat CC1 cells assessed as cell viability at 1 to 20 ug/ml after 48 hrs by MTT assay; format: cell-based; conditions: cc-1, 48 h

Row | Structure (SMILES) | inhibition [1] | inhibition [2] | inhibition [3] | IC50 [4] [µM] | Activity [5] | Activity [6]
1 | Cc1cccc(NC(=S)Nc2ccccc2SSc2ccccc2NC(=S)Nc2cccc(C)c2)c1 | inactive | inactive | inactive | 3.7 | Non-toxic | Non-toxic
2 | S=C(Nc1ccc(Br)cc1)Nc1ccccc1SSc1ccccc1NC(=S)Nc1ccc(Br)cc1 | inactive | inactive | inactive | 4.3 | Non-toxic | Non-toxic
3 | COc1cccc(NC(=S)Nc2ccccc2SSc2ccccc2NC(=S)Nc2cccc(OC)c2)c1 | inactive | inactive | inactive | 14.6 | Non-toxic | Non-toxic
4 | Fc1ccccc1NC(=S)Nc1ccccc1SSc1ccccc1NC(=S)Nc1ccccc1F | inactive | inactive | inactive | 0.7 | Non-toxic | Non-toxic
5 | O=[N+]([O-])c1ccc(NC(=S)Nc2ccccc2SSc2ccccc2NC(=S)Nc2ccc([N+](=O)[O-])cc2)cc1 | inactive | inactive | inactive | 6.4 | Non-toxic | Non-toxic
6 | NC(N)=S [THIOUREA] | – | – | – | 19.5 | – | –
7 | S=C(Nc1cccc(Br)c1)Nc1ccccc1SSc1ccccc1NC(=S)Nc1cccc(Br)c1 | inactive | inactive | inactive | 10.3 | Non-toxic | Non-toxic
8 | COc1ccccc1NC(=S)Nc1ccccc1SSc1ccccc1NC(=S)Nc1ccccc1OC | inactive | inactive | inactive | 1.7 | Non-toxic | Non-toxic
9 | COc1ccc(NC(=S)Nc2ccccc2SSc2ccccc2NC(=S)Nc2ccc(OC)cc2)cc1 | inactive | inactive | inactive | 4.2 | Non-toxic | Non-toxic
10 | S=C(Nc1ccccc1Cl)Nc1ccccc1SSc1ccccc1NC(=S)Nc1ccccc1Cl | inactive | inactive | inactive | 3.4 | Non-toxic | Non-toxic
11 | Fc1ccc(NC(=S)Nc2ccccc2SSc2ccccc2NC(=S)Nc2ccc(F)cc2)cc1 | inactive | inactive | inactive | 0.4 | Non-toxic | Non-toxic
12 | FC(F)(F)c1ccc(NC(=S)Nc2ccccc2SSc2ccccc2NC(=S)Nc2ccc(C(F)(F)F)cc2)cc1 | inactive | inactive | inactive | 1.5 | Non-toxic | Non-toxic
13 | O=[N+]([O-])c1cccc(NC(=S)Nc2ccccc2SSc2ccccc2NC(=S)Nc2cccc([N+](=O)[O-])c2)c1 | inactive | inactive | inactive | 12.3 | Non-toxic | Non-toxic
14 | S=C(Nc1ccccc1SSc1ccccc1NC(=S)NC12CC3CC(CC(C3)C1)C2)NC12CC3CC(CC(C3)C1)C2 | inactive | inactive | inactive | 17.6 | Non-toxic | Non-toxic
15 | Fc1cccc(NC(=S)Nc2ccccc2SSc2ccccc2NC(=S)Nc2cccc(F)c2)c1 | inactive | inactive | inactive | 1.5 | Non-toxic | Non-toxic
16 | S=C(Nc1ccccc1)Nc1ccccc1SSc1ccccc1NC(=S)Nc1ccccc1 | inactive | inactive | inactive | 15.1 | Non-toxic | Non-toxic
17 | S=C(Nc1ccccc1Br)Nc1ccccc1SSc1ccccc1NC(=S)Nc1ccccc1Br | inactive | inactive | inactive | 18.6 | Non-toxic | Non-toxic
18 | S=C(Nc1ccc(Cl)c(Cl)c1)Nc1ccccc1SSc1ccccc1NC(=S)Nc1ccc(Cl)c(Cl)c1 | inactive | inactive | inactive | 3.2 | Non-toxic | Non-toxic
19 | S=C(Nc1ccc(Cl)cc1)Nc1ccccc1SSc1ccccc1NC(=S)Nc1ccc(Cl)cc1 | inactive | inactive | inactive | 1.6 | Non-toxic | Non-toxic
20 | Cc1ccc(NC(=S)Nc2ccccc2SSc2ccccc2NC(=S)Nc2ccc(C)cc2)cc1 | inactive | inactive | inactive | 1.4 | Non-toxic | Non-toxic
21 | Cc1ccccc1NC(=S)Nc1ccccc1SSc1ccccc1NC(=S)Nc1ccccc1C | inactive | inactive | inactive | 1.1 | Non-toxic | Non-toxic
